According to patent US20250009844A1, “MATURATION OF MUCOSAL DEFENSE AND GUT/LUNG FUNCTION IN THE PRETERM INFANT” (Novozymes A/S, priority 2017, published 2025):
Entries after “also recorded” stand apart in the source; their conditions may differ. No end group written: not given here.

Tests used:
[1] = tested on: PBMC cells; experiment: PBMC cell viability, Alamar Blue, 24 hours (Example 8); assay type: cell-based, human; conditions: 1, 10 and 40 μg/ml, 0.6 and 20.0 pg/ml LPS
Description: FIG. 39. Cell viability of PBMC cells following exposure for 24 hours to Alamar Blue and HD5, hBD-1, hBD-2, hBD-3 and hBD-4 at concentrations of 1, 10 and 40 μg/ml.
PBMC cell viability following exposure for 24 hours to Alamar Blue and HD5,hBD-1, hBD-2, hBD-3 and hBD-4 at concentrations of 1, 10 and 40 μg/ml at 0.6 and 20.0 pg/ml LPS respectively (FIG. 39).

[2] = tested on: microbiota of the intestine; experiment: Therapeutic high fat diet model in diet-induced obese mice, 16S microbial analyses (Example 2); assay type: in vivo
From the text: (§1) The overall design of the study is shown in FIG. 1, lower panel, “Therapeutic study”. Mice and diets. The experiment elucidates the effect of hBD-2 and HD5 on the microbiota in diet-induced obese mice. A run-in period of 13 weeks where mice were fed a very HFD (60% energy from fat) preceded the intervention. Only mice meeting the criteria of a minimum of 12 gram weight gain (approximately 50% of initial bodyweight) during the run-in period were included in the final analyses. […] They were exposed to all experimental tests, but excluded from the analyses.
(§2) Treatment regimen. Before the intervention all mice were MR scanned. Cages of mice were allocated to experimental groups based on their fat mass. All subsequent measures were paired with data from the same mouse before the intervention. A LFD (low fat diet) reference group was running in parallel. As controls for the intervention 2 additional groups were included: a) very HFD and b) LFD. Experimental mice stayed on the very HFD during the intervention. The mice were on the experimental diet for 10 weeks. They were co-housed throughout the experiment, 4 mice per cage, 3 cages per group. All tests ran over 3 days, 1 cage per group per day.
(§3) Microbial analyses were carried out to study the microbiota of the intestine. Longitudinal 16S characterization was conducted on 4 paired samples from 60 mice, 240 samples in total. Each mouse was sampled prior to diet change, 1 week post diet change, 4 weeks post diet change and at termination, thus ensuring a thorough characterization of the faecal microbiota as a result of defensin treatment.

[3] = tested on: BALB/c mice; experiment: Murine model of acute graft versus host disease, oral HD5 (Example 13); assay type: in vivo
Description: Treatment regime: 22 female BALB/c mice were irradiated with 4.5 Gy (2×498 sec) at intervals of at least 4 hours on day 0. Bone marrow was harvested: hind limbs harvested from 2 female WT C57BL/6 mice aseptically. Skeletal muscle was removed and epiphysis cut away. Lumen of bone flushed with PBS and cells pelleted and taken up. Harvest of T-cells: spleens from 2 female WT C57BL/6 mice were meshed through a […] cell strainer into a PBS filled dish. Cells were taken up in PBS and transferred into a 50 mL falcon tube and spun down. Cells were taken up in 1 mL PBS and 20 μL of CD4 microbead +20 μL CD8 microbeads per spleen added for incubation for 20 min at 4 degrees C. Cells were washed with PBS and applied to MACS separation in order to positively select CD4+ and CD8+ cells. Positively selected T-cells were counted and taken up. Transplantation: directly after the second irradiation, all WT BALB/c recipient mice were injected with 5×1.000.000 BM cells (50 μL) i.v. into the retroorbital venous plexus under isoflurane anesthesia. 22 BALB/c mice were treated with 1.2 mg of HD5/kg BW/day; 1.2 mg of hBD-2/kg BW/day or 100 μL of PBS per day vial oral gavage from day 0-10.
Survival was monitored for 60 days.

[4] = tested on: microbiota of the intestine; experiment: Prophylactic high fat diet murine model, 16S microbial analyses (Example 1); assay type: in vivo, mice
From the text: The overall experimental design is shown in FIG. 1, top panel “Prophylactic study”. Mice: Mice were housed in trios, 4 cages per group. Feed intake was registered daily just before lights were turned off at 6 pm. Individual mice were subjected to experimental procedures in altered order both group and cage wise. Mice were kept at room temperature under a 12-hour light/dark cycle at SPF standard conditions. Diets: For dosing, the average weight was estimated to be 25 grams per mouse. Mice eat approximately 3 grams of feed per mouse per day.
Treatment regime: Mice were fed either a high fat diet (HFD) or a low fat (LF) control diet. The HFD contained 4 subgroups; a) hBD-2, b) HD5, c) hBD-2/HD5 and d) standard HFD without supplementation of defensins. Defensin concentration was 1,2 mg hBD-2 per kg mouse per day. HD5 was given in equimolar concentration to hBD-2.
as §3

[5] = tested on: bacteria localization at the surface of the intestinal mucosa; experiment: Localization of bacteria by FISH with mucin immunostaining, lysis zone (Example 14); assay type: in vivo; conditions: orally administered; compared with mice on a low fat or western diet
Description: Immunostaining of mucins and localization of bacteria by FISH Mucus immunostaining was paired with fluorescent in situ hybridization (FISH), as previously described in order to analyze bacteria localization at the surface of the intestinal mucosa. Briefly, colonic tissues (proximal colon, 2nd cm from the cecum) without fecal material were placed in methanol-Carnoy's fixative solution (60% methanol, 30% chloroform, 10% glacial acetic acid) for a minimum of 3 hours at room temperature. Tissues were then washed in methanol 2×30 min, ethanol 2×15 min, ethanol/xylene (1:1), 15 min and xylene 2×15 min, followed by embedding in Paraffin with a vertical orientation. Five μm sections were performed and dewax by preheating at 60° C. for 10 min, followed by xylene 60° C. for 10 min, xylene for 10 min and 99.5% ethanol for 10 minutes. Hybridization step was performed at 50° C. overnight with EUB338 probe (5′-GCTGCCTCCCGTAGGAGT-3′, with a 5′ labeling using Alexa 647) diluted to a final concentration of 10 μg/mL in hybridization buffer (20 mM Tris-HCl, pH 7.4, 0.9 M NaCl, 0.1% SDS, 20% formamide). After washing 10 min in wash buffer (20 mM Tris-HCl, pH 7.4, 0.9 M NaCl) and 3×10 min in PBS, PAP pen (Sigma-Aldrich) was used to mark around the section and block solution (5% fetal bovine serum in PBS) was added for 30 min at 4° C. […]

[6] = Therapeutic high fat diet model in diet-induced obese mice, weight and fat percentage (Example 2); assay type: in vivo
From the text: as §1, §2

[7] = tested on: SCID mice; experiment: Therapeutic, murine, 14 weeks, CD4+CD25+ T cell transfer induced colitis model (Example 4); assay type: in vivo
From the text: Treatment regime: 70 female BALB/c mice housed in groups of five per cage were allocated to 7 different treatment groups. Colitis was induced in SCID mice by transplantation of CD4+CD25 Tcells from BALB/c mice. Lymphocytes isolated from spleen and lymph nodes from BALB/c mice were subjected to negative selection of CD4+Tcells. Afterwards, CD4+CD25+cells were positively isolated by binding to the beads from the CD4+Tcell suspensions and the CD4+CD25—were collected from the supernatant. The animals were treated with hBD-2, 0.1 mg/kg s.c. once daily 86consecutive days from day 7 (OD); 1 mg/kg s.c. OD or 3 mg/kg s.c. OD;with mouse anti TNFa 100 μg/mouse s.c. twice weekly (enbrel); with dexamethasone 0.3 mg/kg intraperitoneally OD (dex); with PBS s.c. as vehicle from day 7 and 86 consecutive days (vehicle) or sham treated (sham).
Treatment groups: • 1. 0.1 mg/kg hBD-2, once daily subcutaneously (n=11) • 2. 1 mg/kg hBD-2, once daily subcutaneously (n=11) • 3. 3 mg/kg hBD-2, once daily subcutaneously (n=11) • 4. PBS (hBD-2 vehicle), once daily subcutaneously (n=11) • 5. 0.3 mg/kg Dexamethasone, once daily intraperitoneally (n=11) • 6. 100 μg/mouse soluble human 75-kilodalton TNF receptor linked to Fc portion of IgG1 (Enbrel), twice a week subcutaneously (n=11) • 7. Sham treated group (n=6)
Clinical assessment was based on body weight loss, stool consistency and presence of blood per rectum. The animals were sacrificed on day 95 and colon removed for assessment of weight and myeloperoxidase activity.

[8] = tested on: neonatal rat model; conditions: cited from earlier work
[9] = tested on: gut epithelial cell lines; conditions: cited from earlier work
[10] = same three dosing regimens, sacrifice day 95

For “human beta defensin 4 (ELDRICGYGTARCRKKCRSQEYRIGRCPNTYACCLRK; ends and bridges not checked; cysteine pairing not given here; listed as Homo sapiens) [hBD-4]”, the “Toxicity (PBMC cell viability)” value [1] was “moderately increasing toxicity; also recorded: moderately toxic”.

For “human intestinal alpha defensin 5 (ATCYCRTGRCATRESLSGVCEISGRLYRLCCR; listed as Homo sapiens) [HD5]”, the “Abundance of Alloprevotella” value ([2]; colon, therapeutic intervention, HD5 p<0.02) was “increased the abundance of Alloprevotella statistically significantly”, the “Relative abundance of Bifidobacteriaceae” value ([2]; small intestine, hBD-2 p<0.0001) was “trend towards HD5 increasing the abundance of Bifidobacteriaceae” and the “Animals that had died by day 60” value ([3]; 1.2 mg/kg BW/day oral gavage day 0-10, HD5 group of 8, PBS six out of eight died) was 2. For the same substance, the Mortality ([3]; 22 mice, oral treatment for 10 days) was “significant reduction of mortality”, the “Toxicity (PBMC cell viability)” value [1] was “not toxic irrespectively of concentration; also recorded: not to be toxic” and the “Microbial presence and abundance (unifrac, genus analysis)” value ([4]; prophylactic oral defensin in HFD, 1,2 mg hBD-2 per kg per day, HD5 equimolar, mix 50%+50%) was “affected primarily the microbial abundance”. The “Abundance of Allobaculum” value ([4]; small intestine, prophylaxis, p<0.02) was “statistically significant increase of abundance of Allobaculum”, the “Distance from the intestinal lining to bacterial population (lysis zone)” value [5] was “profound effect on the distance” and the Fat percentage ([6]; 4 weeks after dietary change, HFD plus HD5 vs HFD control, p=0.009) was “significantly lower fat percentage”. The “Fat percentage, course” value ([6]; HFD plus HD5 group after dietary intervention) was “tendency of decreasing fat percentage” and the Weight gain ([6]; after dietary intervention, HFD plus HD5 vs HFD control, p<0.05) was “gained significantly less weight than the HFD control”.

With “human beta defensin 1 (DHYNCVSSGGQCLYSACPIFTKIQGTCYRGKAKCCK; ends and bridges not checked; cysteine pairing not given here; listed as Homo sapiens) [hBD-1]” the “Toxicity (PBMC cell viability)” value [1] was “not toxic irrespectively of concentration; also recorded: not to be toxic”.

In the case of Enbrel [reference compound], the “Clinical score (body weight loss, stool consistency, blood per rectum)” value ([7]; hBD-2 1 mg/kg s.c. OD, Dexamethasone 0.3 mg/kg i.p. OD, Enbrel 100 μg/mouse s.c. twice weekly, from day 7) is reported as “statistically significant and similar effect on clinical score”, the Colon weight [7, 10] is reported as “statistically significant and similar effect on colon weight” and the “Myeloperoxidase activity in intestinal tissue” value [7, 10] is reported as “statistically significant and similar effect”.

In the case of “human beta defensin 3 (GIINTLQKYYCRVRGGRCAVLSCLPKEEQIGKCSTRGRKCCRRK; ends and bridges not checked; cysteine pairing not given here; listed as Homo sapiens) [hBD-3]”, the “Toxicity (PBMC cell viability)” value [1] is listed as “profoundly increasing toxicity; also recorded: toxic”, the “Incidence of NEC” value [8] is listed as “decrease the incidence of NEC” and the Toxicity [9] is listed as “not to be toxic”.
